{"source": "patent US12624123B2", "about": "“Compositions and methods for reducing off-target toxicity of antibody drug conjugates” (The Research Foundation for The State University of New York, priority 2019, dated 2026)", "molecules": {"B1": {"name": "DF3A2 (protein)", "VHH": "QVQLQESGGGLVQPGGSLRLSCAASGGIFGISYMGWYRQAPGKQREPVALITSGGDTAYGDSVKGRFAISRDNAKNTVYLQMNSLKPDDTSAYYCAAGFYRSDSPNRYDYWGQGTQVTVSS", "modifications": "DF3A2"}, "B2": {"name": "MC7 (protein)", "VHH": "QVQLVQSGGGLVQAGGSLRLSCVASGRTFSMYRMGWFRQAPGKEREFVASIRWSGGSTYYTDSVKDRFTISRDNAKNTVYLQMNSLKPEDTAVYYCAADPVWRLNSWYRGAVGYWGQGTQVTVSS", "modifications": "MC7"}, "B3": {"name": "8C2 VHH: heavy chain CDRs of 8C2 placed into a stable human framework, SEQ ID NO:69 (protein)", "VHH": "QVQLVQSGGGLVQPGGSLRLSCAASGFNIKDTYIHWMSWVRQAPGKGLEWVSPDLANDNTKYDPKYYADSVKGRFTISRDNSKNTLYLQMNTLRAEDTAVYYCATWGAIITLGGWGQTMVTVSS", "modifications": "8C2 VHH"}}, "key": {"[1]": {"tested_on": "HT-29 cells", "experiment": "Competitive cell cytotoxicity (MTT) assay with HT-29 cells", "format": "cell-based", "details": "in absence of 8C2, read-out: IC50 of SN38", "procedure": "(§1) Log-phase MOLM-14, Ramos (RA 1), HT-29, LS174T, or NCI-N87 cells were seeded in 96-well microtiter plates at a density of 20,000 cells/well, 20,000 cells/well, 5,000 cells/well, 5,000 cells/well, and 10,000 cells/well, respectively, in 100 μL of culture medium. HT-29, LS174T, and NCI-N87 cells were allowed to adhere for 24 h before cell culture media was aspirated and replaced with 100 μL of fresh media containing a range of treatment for, 48 (LS174T), 96 (NCI-N87), or 120 (HT-29) h. MOLM-14 and Ramos cells were re-suspended with treatment solutions, where 100 μL of cell-treatment suspension was aliquoted into wells of a 96-well plate for 24 h. Treatment solutions consisted of calicheamicin, MMAE, topotecan, or SN38 with or without immunized animal plasma, purified anti-drug antibody, or antibody-drug conjugate (ADC) with or without plasma or anti-drug antibody. For MOLM-14 and Ramos cells, 25 μL of MTT solution (5 mg/mL in pH 7.4 1× PBS) was added directly to wells following treatment incubation. For adherent cells, treatment media was aspirated from wells and cells were washed three times with 100 μL of fresh media. Following the final wash, 100 μL of complete media and 25 μL of MTT solution were added to each well."}, "[2]": {"tested_on": "8C2 mAb", "experiment": "Competitive ELISA of 8C2 with topotecan and SN38 (BSA-topotecan coated)", "format": "binding, murine", "details": "8C2 held constant at 10 nM; read-out: IC50 in competitive ELISA vs intact 8C2", "procedure": "A competitive ELISA was employed to determine the affinity of intact 8C2 mAb for SN38 and topotecan. A BSA-topotecan conjugate was synthesized and immobilized as previously described (Shah et al., Int J Pharm. 2014; 465(1-2):228-238. doi:10.1016/j.ijpharm.2014.01.038) 8C2 concentration was held constant at 10 nM with increasing concentrations of topotecan or SN38. 8C2 drug samples were incubated for 2 hours at room temperature with agitation. Following incubation, wells were washed three times with 250 μL of PBS-T and three times with dH2O. Wells were then incubated with a 1:500 dilution anti-mouse AP conjugate secondary in PBS-T with 3% BSA for 1 h. After washing, 250 μL of 4 mg/ml PNPP in diethanolamine buffer pH 9.8 with absorbance being read at 405 nm. The change in absorbance over time data was fit to a four-parameter function in GraphPad Prism 7."}, "[3]": {"target": "8C2 Fab", "experiment": "Competitive SPR assay on exatecan chip", "format": "binding", "details": "5 nM Fab, 1 hour incubation", "procedure": "Exatecan was immobilized onto a CMS chip through amine coupling. […] Dilutions were incubated for one hour and subsequently injected over the exatecan immobilized chip. The observed maximum response data was fit to a 3 parameter inhibition equation in GraphPad Prism 7.\nB/Bo is signal reached after a 3.5 minute injection with spiked in drugs divided by signal with Fab alone."}, "[4]": {"tested_on": "SKBR3 cells", "experiment": "Competitive cell assay with SKBR3 cells", "format": "cell-based", "procedure": "SKBR3 cells were diluted to 4000 cells/100 μL and 100 μL was added to individual wells of a 96 well culture plate. Cells were incubated overnight to allow cells to adhere to the plate. […] Dxd and SN38 were diluted at the indicated concentrations and incubated for 90 minutes. Following incubation dilutions were added to individual wells in triplicate with fresh media dilutions added on day 1, 3 and 5 with cell viability evaluated on day 7 using an MTT assay."}, "[5]": {"tested_on": "NCI-N87 cells", "experiment": "Cytotoxicity of MMAE and T-vc-MMAE in NCI-N87 cells with or without plasma", "format": "cell-based", "details": "96 h, MMAE alone", "procedure": "as §1"}, "[6]": {"tested_on": "Lovo cells", "experiment": "MTT cytotoxicity of DM1 and DM4 on Lovo cells", "format": "cell-based", "details": "6 h exposure", "procedure": "Log-phase Lovo or MOLM-14 cells were seeded in 96-well microtiter plates at a density of 5,000 cells/well, in 100 μL or 70 μL of culture medium, respectively. […] MOLM-14 cells were re-suspended with treatment solutions, where 100 μL of cell-treatment suspension was aliquoted into wells of a 96-well plate for 24 h. Treatment solutions consisted of DM-4 with or without purified anti-drug sdAb. For MOLM-14 cells, 10 μL of MTT solution (5 mg/mL in pH 7.4 1× PBS) was added directly to wells following treatment incubation. For adherent cells, treatment media was aspirated from wells and cells were washed three times with 100 μL of fresh media. Following the final wash, 100 μL of complete media and 25 μL of MTT solution were added to each well. Cells were incubated for 4 h in order to allow cells to reduce MTT to formazan dye. Once MTT was reduced, 100 μL of 10% SDS prepared in 0.01 M HCl was added to each well and incubated overnight to solubilize the formazan crystals. Formazan dye was measured at 570 nm and normalized by cell debris at 690 nm."}, "[7]": {"tested_on": "MOLM-14 cells", "experiment": "MTT cytotoxicity of DM4 on MOLM-14 cells (DF3A2)", "format": "cell-based, human", "procedure": "Log-phase Lovo or MOLM-14 cells were seeded in 96-well microtiter plates at a density of 5,000 cells/well, in 100 μL or 70 μL of culture medium, respectively. Lovo cells were allowed to adhere for 24 h before cell culture media was aspirated and replaced with 100 μL of PBS containing a range of treatment for 6h, then washed for 2 times before replacing with fresh media and incubated for additional 90 h. MOLM-14 cells were re-suspended with treatment solutions, where 100 μL of cell-treatment suspension was aliquoted into wells of a 96-well plate for 24 h. Treatment solutions consisted of DM-4 with or without purified anti-drug sdAb. For MOLM-14 cells, 10 μL of MTT solution (5 mg/mL in pH 7.4 1× PBS) was added directly to wells following treatment incubation. For adherent cells, treatment media was aspirated from wells and cells were washed three times with 100 μL of fresh media. Following the final wash, 100 μL of complete media and 25 μL of MTT solution were added to each well. Cells were incubated for 4 h in order to allow cells to reduce MTT to formazan dye. Once MTT was reduced, 100 μL of 10% SDS prepared in 0.01 M HCl was added to each well and incubated overnight to solubilize the formazan crystals. Formazan dye was measured at 570 nm and normalized by cell debris at 690 nm."}, "[8]": {"experiment": "SPR dissociation screening on DM1-Biotin chip", "format": "binding", "details": "20 min dissociation phase", "procedure": "Preliminary screening of DM1/4 binders were performed using a neutravidin SPR chip with DM1-Biotin on the left channel. Phagemid purified sdAbs were flowed over the SPR chip for 2 minutes at a flow rate of 25 ul/min. After binding, sdAb was dissociated for 20 minutes. Observed sensorgrams were fit to an individual dissociation rate constant for each construct. Equilibrium and kinetic binding of 3A2 was assessed using a CM5 SPR chip with TDM1 immobilized on the left channel. […] Rate constants for 3A2-TDM1 association and dissociation were obtained through fitting of the observed sensorgrams for the 1.25, 2.5, 5, 7.5 and 10 nM injections to a 1:1 Langmuir binding model."}, "[9]": {"tested_on": "NCI-N87 cells", "experiment": "NCI-N87 pulse cytotoxicity assay with C7 sdAb prep", "format": "cell-based", "details": "NCI-N87, 2 h pulse, 96 h with sdAb prep diluted 1:6.67", "procedure": "FIG. 43. Purification of C7 sdAb from BL21(DE3) transformed E. coli cells and inhibitory cell cytotoxicity assays. C7 sdAb was expressed to the periplasm using a pelB leader sequence and purified using IMAC Ni-NTA resin. […] Although the product was crude, it was employed in cell cytotoxicity assays. NCI-N87 cells were seeded at a density of 10,000 cells/well and pulse with treatment solutions for 2 h. After treatment removal and washing, cells were incubated for 96 h with sdAb prep, diluted 1:6.67 with fresh culture medium.\nFrom the single domain library, there were nine positive hits from three rounds of panning against BSA-MMAF/T-vc-MMAE. The screening of isolated colonies determined all were inhibited by incubation with free MMAE (FIG. 42), with three >10-fold inhibition. One colony, C7 was selected for infection of BL21(DE3) cells and protein expression."}, "[10]": {"experiment": "8C2 VHH binding to SN38 immobilized on magnetic beads", "procedure": "The complementarily determining regions of the 8C2 heavy chain were placed into the stable human framework m0 that was reported by Dimitrov et al (PMID 18687338). DNA encoding for the 8C2 VHH was synthesized by GeneArt. DNA sequences were ligated into the Pet22b vector between the XhoI and NdeI restriction enzyme sites. DNA was transformed into Shuffle T7 express E. coli cells and expressed using standard recombinant expression. To evaluate binding activity, 8C2 VHH was incubated with SN38 immobilized onto magnetic beads and bound VHH detected with an anti-HIS tag HRP labeled reporter antibody. Intact 8C2 mAb was incubated alone and in-combination with 8C2 VHH and 8C2 mAb binding evaluated with an anti-mouse IgG HRP reporter antibody."}}, "note": "Entries after “also recorded” stand apart in the source; their conditions may differ. Read-outs that look alike come from different tables or passages of the source. Square brackets hold non-standard residues; d marks the D form. Peptide text beside a SMILES is read from it. * marks the point of attachment. Dolaproine = CO[C@@H]([C@@H]1CCCN1)[C@@H](C)C(=O)O; Dil = CC[C@H](C)[C@H](NC)[C@@H](CC(=O)O)OC; X1 = C[C@@H](N*)[C@@H](O)c1ccccc1; NMeV = CN[C@H](C(=O)O)C(C)C", "data": [{"molecule": "CCc1c2c(nc3ccc(O)cc13)-c1cc3c(c(=O)n1C2)COC(=O)[C@]3(O)CC", "note": "[SN38]", "values": [{"measurement": "IC50", "setting": "[1]", "result": 8, "unit": "nM"}, {"measurement": "IC50", "setting": "[2]", "result": 10.3, "unit": "nM"}, {"measurement": "IC50 for inhibition of Fab binding to immobilized exatecan", "setting": "[3]", "result": "low-nanomolar"}, {"measurement": "IC50", "setting": "[4]; viability day 7, read-out: IC50 of free SN38", "result": 1.4, "unit": "nM"}]}, {"molecule": "CC[C@H](C)[C@@H]([C@@H](CC(=O)N1CCC[C@H]1[C@H](OC)[C@@H](C)C(=O)N[C@H](C)[C@@H](O)c1ccccc1)OC)N(C)C(=O)[C@@H](NC(=O)[C@@H](NC)C(C)C)C(C)C", "note": "[MMAE, monomethyl auristatin E] (H-[NMeV]V[Dil][Dolaproine]-X1)", "values": [{"measurement": "IC50", "setting": "[5]", "result": "0.496 ± 0.0327", "unit": "nM"}]}, {"molecule": "CC[C@@]1(O)C(=O)OCc2c1cc1n(c2=O)Cc2c-1nc1cc(F)c(C)c3c1c2[C@@H](NC(=O)CO)CC3", "note": "[Dxd]", "values": [{"measurement": "IC50 for inhibition of Fab binding to immobilized exatecan", "setting": "[3]", "result": "low-nanomolar"}, {"measurement": "IC50", "setting": "[4]; viability day 7, read-out: IC50 of Dxd alone", "result": 0.7, "unit": "nM"}]}, {"molecule": "B1", "values": [{"measurement": "fold shift of DM4 IC50", "setting": "[6]", "result": 11, "unit": "fold"}, {"measurement": "fold inhibition of DM4 cytotoxicity", "setting": "[7]", "result": 2.1, "unit": "fold"}, {"measurement": "dissociation kinetics", "setting": "[8]", "result": "longest dissociation rates; also recorded: longer dissociation rates"}]}, {"molecule": "B2", "values": [{"measurement": "fold enhancement of T-vc-MMAE cytotoxicity", "setting": "[9]", "result": 5.2, "unit": "fold"}, {"measurement": "fold inhibition of MMAE cytotoxicity", "setting": "[9]", "result": 5.6, "unit": "fold"}]}, {"molecule": "B3", "values": [{"measurement": "increase in binding signal vs beads with blank buffer", "setting": "[10]; anti-HIS detection", "result": 2, "unit": "×"}, {"measurement": "decrease of 8C2 mAb binding by addition of 8C2 VHH", "setting": "[10]; anti-mouse IgG detection", "result": "~2", "unit": "fold"}]}]}
